Publication PMC5063900, “A phase 1 study of the safety, tolerability, pharmacokinetics, and pharmacodynamics of TAK-063, a selective PDE10A inhibitor” (Psychopharmacology, 2016)

Test: Treatment-emergent adverse events, phase 1 single-rising-dose study in healthy subjects
Format: in vivo, human
Procedure: Healthy Japanese and non-Japanese subjects between 18 and 55 years of age were recruited to participate in the study. Criteria for exclusion included prior treatment with any investigational compound within 30 days of the first TAK-063 dose, a positive test for drugs of abuse or nicotine, and an increased risk for suicide. […] Following a washout period of 7 days, subjects in cohort 3 (100 mg) received the same dose (100 mg) but under fed conditions.
The study assessed safety and tolerability in all subjects for the 4-day study duration. The primary endpoints were the percentage of subjects who experienced at least one treatment-emergent adverse event (TEAE), as well as the percentage of subjects who met predefined criteria for safety laboratory tests, vital sign measurements, and safety parameters following TAK-063 administration. The secondary endpoints were PK parameters for TAK-063 and M-I, assessing drug exposure at each dose, and the effect of food coadministration on TAK-063 PK. Exploratory endpoints included the effects of TAK-063 on domains of cognition as assessed by a computerized battery, CNS Vital Signs (CNSVS).
Adverse events, clinical laboratory tests, vital signs, 12-lead electrocardiograms (ECGs), and Columbia-Suicide Severity Rating Scale (C-SSRS) were all monitored. Intensity of AEs was classified as mild, moderate, or severe, and each AE was classified as to its relation to study drug.
Laboratory tests evaluated hematology, serum chemistry, urine, and hormone levels. Vital signs and ECGs were collected at screening, check-in, within 1 h predose, serially postdose, and at study exit, while the C-SSRS was administered at screening, check-in, and study exit. Any events reported on the C-SSRS and clinically significant laboratory abnormalities were reported as AEs.

[1] = all subjects, single 30 mg dose (n = 11)
[2] = all subjects, single 100 mg dose (n = 11)
[3] = all subjects, single 300 mg dose (n = 11)
[4] = all subjects, single 1000 mg dose (n = 11)
[5] = non-Japanese subjects, TAK-063 Total (n = 36)
[6] = non-Japanese subjects, single 3 mg dose (n = 6)
[7] = non-Japanese subjects, single 10 mg dose (n = 6)
[8] = non-Japanese subjects, single 30 mg dose (n = 6)
[9] = non-Japanese subjects, single 100 mg dose (n = 6)
[10] = non-Japanese subjects, single 300 mg dose (n = 6)
[11] = non-Japanese subjects, single 1000 mg dose (n = 6)

COc1cn(-c2ccc(-n3cccn3)cc2F)nc(-c2ccnn2-c2ccccc2)c1=O [TAK-063]
Adverse event: Somnolence [1]: 4 (36.4) n (%)
Adverse event: Vomiting [1]: 0 n (%)
Adverse event: Anxiety [2]: 0 n (%)
Adverse event: Blurred vision [2]: 0 n (%)
Adverse event: Dizziness [2]: 0 n (%)
Adverse event: Dysarthria [2]: 0 n (%)
Adverse event: Epistaxis [2]: 0 n (%)
Adverse event: Headache [2]: 1 (9.1) n (%)
Adverse event: Hypotension [2]: 1 (9.1) n (%)
Adverse event: Muscle tightness [2]: 0 n (%)
Adverse event: Nausea [2]: 0 n (%)
Adverse event: Orthostatic hypotension [2]: 1 (9.1) n (%)
Adverse event: Orthostatic tachycardia [2]: 2 (18.2) n (%)
Adverse event: Somnolence [2]: 7 (63.6) n (%)
Adverse event: Vomiting [2]: 1 (9.1) n (%)
Adverse event: Anxiety [3]: 0 n (%)
Adverse event: Blurred vision [3]: 0 n (%)
Adverse event: Dizziness [3]: 1 (9.1) n (%)
Adverse event: Dysarthria [3]: 0 n (%)
Adverse event: Epistaxis [3]: 0 n (%)
Adverse event: Headache [3]: 1 (9.1) n (%)
Adverse event: Hypotension [3]: 0 n (%)
Adverse event: Muscle tightness [3]: 0 n (%)
Adverse event: Nausea [3]: 0 n (%)
Adverse event: Orthostatic hypotension [3]: 1 (9.1) n (%)
Adverse event: Orthostatic tachycardia [3]: 1 (9.1) n (%)
Adverse event: Somnolence [3]: 5 (45.5) n (%)
Adverse event: Vomiting [3]: 1 (9.1) n (%)
Adverse event: Anxiety [4]: 1 (9.1) n (%)
Adverse event: Blurred vision [4]: 1 (9.1) n (%)
Adverse event: Dizziness [4]: 1 (9.1) n (%)
Adverse event: Dysarthria [4]: 1 (9.1) n (%)
Adverse event: Epistaxis [4]: 0 n (%)
Adverse event: Headache [4]: 0 n (%)
Adverse event: Hypotension [4]: 0 n (%)
Adverse event: Muscle tightness [4]: 0 n (%)
Adverse event: Nausea [4]: 1 (9.1) n (%)
Adverse event: Orthostatic hypotension [4]: 5 (45.5) n (%)
Adverse event: Orthostatic tachycardia [4]: 7 (63.6) n (%)
Adverse event: Somnolence [4]: 6 (54.5) n (%)
Adverse event: Vomiting [4]: 1 (9.1) n (%)
Total incidence of TEAEs (non-Japanese subjects treated with TAK-063): 52.8%
Adverse event: Anxiety [5]: 1 (2.8) n (%)
Adverse event: Blurred vision [5]: 1 (2.8) n (%)
Adverse event: Dizziness [5]: 2 (5.6) n (%)
Adverse event: Dysarthria [5]: 1 (2.8) n (%)
Adverse event: Headache [5]: 1 (2.8) n (%)
Adverse event: Hypotension [5]: 1 (2.8) n (%)
Adverse event: Nausea [5]: 2 (5.6) n (%)
Adverse event: Orthostatic hypotension [5]: 3 (8.3) n (%)
Adverse event: Orthostatic tachycardia [5]: 8 (22.2) n (%)
Adverse event: Somnolence [5]: 12 (33.3) n (%)
Adverse event: Vomiting [5]: 1 (2.8) n (%)
Adverse event: Anxiety [6]: 0 n (%)
Adverse event: Blurred vision [6]: 0 n (%)
Adverse event: Dizziness [6]: 0 n (%)
Adverse event: Dysarthria [6]: 0 n (%)
Adverse event: Headache [6]: 0 n (%)
Adverse event: Hypotension [6]: 0 n (%)
Adverse event: Nausea [6]: 0 n (%)
Adverse event: Orthostatic hypotension [6]: 0 n (%)
Adverse event: Orthostatic tachycardia [6]: 2 (33.3) n (%)
Adverse event: Somnolence [6]: 0 n (%)
Adverse event: Vomiting [6]: 0 n (%)
Adverse event: Anxiety [7]: 0 n (%)
Adverse event: Blurred vision [7]: 0 n (%)
Adverse event: Dizziness [7]: 0 n (%)
Adverse event: Dysarthria [7]: 0 n (%)
Adverse event: Headache [7]: 0 n (%)
Adverse event: Hypotension [7]: 0 n (%)
Adverse event: Nausea [7]: 0 n (%)
Adverse event: Orthostatic hypotension [7]: 0 n (%)
Adverse event: Orthostatic tachycardia [7]: 0 n (%)
Adverse event: Somnolence [7]: 0 n (%)
Adverse event: Vomiting [7]: 0 n (%)
Adverse event: Anxiety [8]: 0 n (%)
Adverse event: Blurred vision [8]: 0 n (%)
Adverse event: Dizziness [8]: 1 (16.7) n (%)
Adverse event: Dysarthria [8]: 0 n (%)
Adverse event: Headache [8]: 0 n (%)
Adverse event: Hypotension [8]: 0 n (%)
Adverse event: Nausea [8]: 2 (33.3) n (%)
Adverse event: Orthostatic hypotension [8]: 0 n (%)
Adverse event: Orthostatic tachycardia [8]: 0 n (%)
Adverse event: Somnolence [8]: 3 (50.0) n (%)
Adverse event: Vomiting [8]: 0 n (%)
Adverse event: Anxiety [9]: 0 n (%)
Adverse event: Blurred vision [9]: 0 n (%)
Adverse event: Dizziness [9]: 0 n (%)
Adverse event: Dysarthria [9]: 0 n (%)
Adverse event: Headache [9]: 0 n (%)
Adverse event: Hypotension [9]: 1 (16.7) n (%)
Adverse event: Nausea [9]: 0 n (%)
Adverse event: Orthostatic hypotension [9]: 0 n (%)
Adverse event: Orthostatic tachycardia [9]: 2 (33.3) n (%)
Adverse event: Somnolence [9]: 3 (50.0) n (%)
Adverse event: Vomiting [9]: 0 n (%)
Adverse event: Anxiety [10]: 0 n (%)
Adverse event: Blurred vision [10]: 0 n (%)
Adverse event: Dizziness [10]: 1 (16.7) n (%)
Adverse event: Dysarthria [10]: 0 n (%)
Adverse event: Headache [10]: 1 (16.7) n (%)
Adverse event: Hypotension [10]: 0 n (%)
Adverse event: Nausea [10]: 0 n (%)
Adverse event: Orthostatic hypotension [10]: 0 n (%)
Adverse event: Orthostatic tachycardia [10]: 0 n (%)
Adverse event: Somnolence [10]: 3 (50.0) n (%)
Adverse event: Vomiting [10]: 1 (16.7) n (%)
Adverse event: Anxiety [11]: 1 (16.7) n (%)
Adverse event: Blurred vision [11]: 1 (16.7) n (%)
Adverse event: Dizziness [11]: 0 n (%)
Adverse event: Dysarthria [11]: 1 (16.7) n (%)
Adverse event: Headache [11]: 0 n (%)
Adverse event: Hypotension [11]: 0 n (%)
Adverse event: Nausea [11]: 0 n (%)
Adverse event: Orthostatic hypotension [11]: 3 (50.0) n (%)
Adverse event: Orthostatic tachycardia [11]: 4 (66.7) n (%)
Adverse event: Somnolence [11]: 3 (50.0) n (%)
Adverse event: Vomiting [11]: 0 n (%)
Association with hyperprolactinemia, hyperglycemia, or other metabolic disturbances (single dose): not associated
Deaths, serious AEs (single doses 3 to 1000 mg): No deaths or other serious AEs were reported
Maximum tolerated dose (single doses up to 1000 mg): not defined
Safety and tolerability (single doses up to 1000 mg): safe and well tolerated
